Results from PMC6256351, “Stereoselective Synthesis of the Isomers of Notoincisol A: Assigment of the Absolute Configuration of this Natural Product and Biological Evaluation” (Journal of Natural Products, 2018).

Molecular target: T1, PPARγ (peroxisome proliferator-activated receptor gamma) (Homo sapiens, UniProt P37231)
T1 construct: gene PPARG; full-length human PPARγ
T1 sequence (P37231 1-505): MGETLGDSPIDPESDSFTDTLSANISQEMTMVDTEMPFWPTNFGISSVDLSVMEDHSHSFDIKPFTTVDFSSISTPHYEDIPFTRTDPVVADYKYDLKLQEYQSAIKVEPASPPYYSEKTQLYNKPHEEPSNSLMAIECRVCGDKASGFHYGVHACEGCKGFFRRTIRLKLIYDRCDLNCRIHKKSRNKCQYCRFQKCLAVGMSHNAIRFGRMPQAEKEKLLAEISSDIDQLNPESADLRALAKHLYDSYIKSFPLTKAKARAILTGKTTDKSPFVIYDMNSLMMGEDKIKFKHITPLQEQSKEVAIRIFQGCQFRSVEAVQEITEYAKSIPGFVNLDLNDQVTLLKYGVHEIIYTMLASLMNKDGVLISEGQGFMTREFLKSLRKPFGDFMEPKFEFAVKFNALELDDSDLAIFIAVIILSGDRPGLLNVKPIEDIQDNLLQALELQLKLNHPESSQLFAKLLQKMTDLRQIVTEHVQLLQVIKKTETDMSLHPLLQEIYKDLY
Assay: luciferase reporter gene transactivation in HEK293 cells transfected with PPARγ
Format: cell-based

Compound: C=C[C@@H](O)C#CC#C[C@H](/C=C\CCCCCCC)OC(=O)/C=C/c1ccc(O)c(OC)c1 [3R,8S-1, (3R,8S)-Notoincisol A]
- EC50: 1200 nM
